In this experiment the target is T1, human β3 adrenergic receptor (Homo sapiens, UniProt P13945).
T1 construct: Full length β3 AR clones (402 amino acids) containing the last 6 amino acids of hβ3-AR are prepared; expressed in transfected cells; host or cells: CHO (Chinese hamster ovary) cells
Briefly: cAMP (SPA) response in CHO cells transfected with human β3 adrenergic receptor. Also noted: key: fraction of maximal isoproterenol (10^-5 M) response. The note with it: maximal response relative to maximal response of isoproterenol at 10^-5 M. It counts as cell-based. On the procedure: Binding to the receptors was measured in Chinese Hamster ovary (CHO) cells that were transfected with adrenergic receptors.
The corresponding primer sequences are described in Mantzoros, C. […] The four fragments are ligated into a pUC 18 plasmid (Gibco-BRL) and sequenced.
CHO cells were grown in 24-well tissue culture plates in Dulbecco's Modified Eagle Media with 10% fetal bovine serum, MEM non-essential amino acids, Penicillin-Streptompycin and Geneticin. On the day of test procedure, growth medium was replaced with preincubation media (Dulbecco's Modified Eagle, Media) and incubated for 30 minutes at 37° C. […] Test compounds were tested over a concentration range of 10^−9 M to 10^−5 M for β3 cells and 10^−8 to 10^−4 M for β1 and β2 transfected cells. Isoproterenol (10^−5 M) was used as an internal standard for comparison of activity. Cells were incubated at 37° C. on a rocker for 30 min with the β3 cells and 15 min for β1 and β2 cells. Incubation was stopped with the addition of 0.2N HCl and neutralized with 2.5N NaOH. The plates, containing the cells and neutralized media, were stored at −20 degrees celsius until ready to test for cAMP using the SPA test kit (Amersham).
Data Analysis and Results: Data collected from the SPA test procedure were analyzed as percent of the maximal isoproterenol response at 10^−5 M. Activity curves were plotted using the SAS statistical and graphics software.

T1 sequence (P13945 whole entry): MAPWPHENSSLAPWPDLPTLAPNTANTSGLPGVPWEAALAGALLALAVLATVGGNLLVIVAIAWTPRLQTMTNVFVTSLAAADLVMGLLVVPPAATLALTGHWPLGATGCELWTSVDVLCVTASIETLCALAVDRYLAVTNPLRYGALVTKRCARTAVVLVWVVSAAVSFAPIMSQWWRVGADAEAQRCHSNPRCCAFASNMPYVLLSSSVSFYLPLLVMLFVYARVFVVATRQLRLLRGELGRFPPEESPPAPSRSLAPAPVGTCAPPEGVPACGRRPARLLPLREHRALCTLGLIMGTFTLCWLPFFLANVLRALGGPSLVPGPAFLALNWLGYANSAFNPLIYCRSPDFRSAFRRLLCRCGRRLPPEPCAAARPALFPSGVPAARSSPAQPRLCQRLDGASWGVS

Regarding `O=c1[nH]c2cccc(OC[C@@H](O)CNC3CCN(c4ccc(NS(=O)(=O)c5ccc(-c6ccccn6)s5)cc4)CC3)c2[nH]1` [Example 278, N-{4-[4-({(2S)-2-Hydroxy-3-[(2-oxo-2,3-dihydro-1H-benzimidazol-4-yl)oxy]propyl}-amino)-1-piperidinyl]phenyl}-5-(2-pyridinyl)-2-thiophenesulfonamide], the “IA(β3)” value is listed as 1.04.

`O=c1[nH]c2cccc(OC[C@@H](O)CNC3CCN(c4ccc(NS(=O)(=O)c5cc(Cl)cc(Cl)c5)cc4)CC3)c2[nH]1` [Example 333, 3,5-Dichloro-N-{4-[4-({(2S)-2-hydroxy-3-[(2-oxo-2,3-dihydro-1H-benzimidazol-4-yl)oxy]propyl}amino)-1-piperidinyl]phenyl}benzenesulfonamide]: the “IA(β3)” value is 0.83.

Consider `CCCCCCNC(=O)Nc1ccc(S(=O)(=O)Nc2ccc(N3CCC(NC[C@H](O)c4cccc(Cl)c4)CC3)cc2)cc1` [Example 311, N-[4-(4-{[(2R)-2-(3-Chlorophenyl)-2-hydroxyethyl]amino-}-piperidinyl)phenyl]-4-{[(hexylamino)carbonyl]amino}benzenesulfonamide], for which the “IA(β3)” value was determined as 0.82.

For `O=C1NC(=O)C(Cc2ccc(N3CCC(NC[C@H](O)COc4cccc5[nH]c(=O)[nH]c45)CC3)c(F)c2)S1` (stereo partly drawn) [Example 67, 5-(3-Fluoro-4-{4-[(2S)-2-hydroxy-3-(2-oxo-2,3-dihydro-1H-benzoimidazol-4-yloxy)-propylamino]-piperidin-1-yl}-benzyl)-thiazolidine-2,4-dione], the “IA(β3)” value stood at 1.06.

Take `O=S(=O)(Nc1ccc(N2CCC(NC[C@@H](O)c3cccc(O)c3)CC2)cc1)c1cccs1` [Example 357, N-[4-(4-{[(2S)-2-Hydroxy-2-(3-hydroxyphenyl)ethyl]amino}-1-piperidinyl)phenyl]-2-thiophenesulfonamide]: the “IA(β3)” value was 0.87.

As to `COc1ccc(S(=O)(=O)Nc2ccc(N3CCC(NC[C@H](O)COc4ccc(O)cc4)CC3)cc2)cc1OC` [Example 279, N-[4-(4-{[(2S)-2-Hydroxy-3-(4-hydroxyphenoxy)propyl]amino}-1-piperidinyl)phenyl]-3,4-dimethoxybenzenesulfonamide], the “IA(β3)” value amounted to 0.74.

Take `CCCCOc1ccc(S(=O)(=O)Nc2ccc(N3CCC(NCC(O)COc4cccc5[nH]c6ccccc6c45)CC3)cc2)cc1` (centres unmarked) [Example 289, 4-Butoxy-N-(4-{4-[3-(9H-carbazol-4-yloxy)-2-hydroxy-propylamino]-piperidin-1-yl}-phenyl)-benzenesulfonamide]: the “IA(β3)” value came out at 0.59.

Take `CCCCOc1ccc(S(=O)(=O)Nc2ccc(N3CCC(NCC(O)c4ccc(O)c(NS(C)(=O)=O)c4)CC3)cc2)cc1` (centres unmarked) [Example 281, 4-Butoxy-N-(4-{4-[2-hydroxy-2-(4-hydroxy-3-methanesulfonylamino-phenyl)-ethylamino]-piperidin-1-yl}-phenyl)-benzenesulfonamide]: the “IA(β3)” value was found to be 1.14.

Take `CCCCS(=O)(=O)Nc1ccc(N2CCC(NC[C@H](O)COc3ccc(O)c4c3CCC(=O)N4)CC2)cc1` [Example 306, N-{4-[4-({(2S)-2-Hydroxy-3-[(8-hydroxy-2-oxo-1,2,3,4-tetrahydro-5-quinolinyl)oxy]-propyl}amino)-1-piperidinyl]phenyl}-1-butanesulfonamide]: the “IA(β3)” value is on record as 1.1.

With `CN(C)CC(=O)Nc1ccc(N2CCC(NC[C@H](O)COc3cccc4[nH]c(=O)[nH]c34)CC2)cc1` [Example 384, 2-(Dimethylamino)-N-{4-[4-({(2S)-2-hydroxy-3-[(2-oxo-2,3-dihydro-1H-benzimidazol-4-yl)oxy]propyl}amino)-1-piperidinyl]phenyl}acetamide], the “IA(β3)” value was determined as 0.64.

Take `O=c1[nH]c2cccc(OC[C@@H](O)CNC3CCN(c4ccc(NS(=O)(=O)c5ccc(OC(F)(F)F)cc5)cc4)CC3)c2[nH]1` [Example 329, N-{4-[4-({(2S)-2-Hydroxy-3-[(2-oxo-2,3-dihydro-1H-benzimidazol-4-yl)oxy]propyl}-amino)-1-piperidinyl]phenyl}-4-(trifluoromethoxy)benzenesulfonamide]: the “IA(β3)” value is recorded as 0.9.

The record behind these values is patent publication US7022716B2, “Cyclic amine phenyl beta-3 adrenergic receptor agonists” (Wyeth, priority 2000, dated 2006).
